Measured values published in the supplement of paper PMC10307832.

How the values were obtained:
Test in all cases: relative viability (nuclei count vs DMSO), 5 days (fraction); higher = more cells survive
Daporinad + Alpelisib = compound: O=C(/C=C/c1cccnc1)NCCCCC1CCN(C(=O)c2ccccc2)CC1 [Daporinad] + Cc1nc(NC(=O)N2CCC[C@H]2C(N)=O)sc1-c1ccnc(C(C)(C)C(F)(F)F)c1 [Alpelisib] (partner 2 µM)
How it was run: (§1)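 Relative viability is defined as nuclei in treated wells over nuclei in vehicle wells. Duplicate plates were run and medians reported. Lung cancer cell lines in 1536-well plates were dosed by pin tool one day after seeding, with one drug or with a fixed anchor-drug dose plus five library-drug doses (not always all listed) in √10 steps, and nuclei were counted after 5 days.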

R406 + Phenformin = compound: COc1cc(Nc2ncc(F)c(Nc3ccc4c(n3)NC(=O)C(C)(C)O4)n2)cc(OC)c1OC [R406] + N=C(N)NC(=N)NCCc1ccccc1 [Phenformin] (partner 250 µM)
How it was run: as §1

R406 + Navitoclax = compound: COc1cc(Nc2ncc(F)c(Nc3ccc4c(n3)NC(=O)C(C)(C)O4)n2)cc(OC)c1OC [R406] + CC1(C)CCC(c2ccc(Cl)cc2)=C(CN2CCN(c3ccc(C(=O)NS(=O)(=O)c4ccc(N[C@H](CCN5CCOCC5)CSc5ccccc5)c(S(=O)(=O)C(F)(F)F)c4)cc3)CC2)C1 [Navitoclax] (partner 0.5 µM)
How it was run: as §1

Daporinad + Luminespib = compound: O=C(/C=C/c1cccnc1)NCCCCC1CCN(C(=O)c2ccccc2)CC1 [Daporinad] + CCNC(=O)c1noc(-c2cc(C(C)C)c(O)cc2O)c1-c1ccc(CN2CCOCC2)cc1 [Luminespib] (partner 0.01 µM)
How it was run: as §1

Cell Line | relative viability (Daporinad + Alpelisib; first compound 0.0005 µM) | relative viability (Daporinad + Alpelisib; first compound 0.001581 µM) | relative viability (Daporinad + Alpelisib; first compound 0.005 µM) | relative viability (Daporinad + Alpelisib; first compound 0.01581 µM) | relative viability (R406 + Phenformin; first compound 0.08 µM) | relative viability (R406 + Phenformin; first compound 0.253 µM) | relative viability (R406 + Phenformin; first compound 0.8 µM) | relative viability (R406 + Phenformin; first compound 2.53 µM) | relative viability (R406 + Phenformin; first compound 8 µM) | relative viability (R406 + Navitoclax; first compound 0.08 µM) | relative viability (R406 + Navitoclax; first compound 0.253 µM) | relative viability (R406 + Navitoclax; first compound 0.8 µM) | relative viability (R406 + Navitoclax; first compound 2.53 µM) | relative viability (R406 + Navitoclax; first compound 8 µM) | relative viability (Daporinad + Luminespib; first compound 0.0005 µM) | relative viability (Daporinad + Luminespib; first compound 0.001581 µM) | relative viability (Daporinad + Luminespib; first compound 0.005 µM) | relative viability (Daporinad + Luminespib; first compound 0.01581 µM)
HCC-827 | 1.04 | 1.03 | 1.06 | 0.969 | 0.436 | 0.401 | 0.439 | 0.265 | 0.215 | 1.04 | 0.952 | 0.949 | 0.932 | 0.489 | 0.639 | 0.747 | 0.704 | 0.732
HOP-62 | – | 1.3 | 1.11 | 0.481 | 0.661 | 0.783 | 0.631 | 0.71 | 0.658 | 0.937 | 0.985 | 1.11 | 1.1 | 1.06 | 0.898 | 0.963 | 1.03 | 0.688
IA-LM | 0.865 | 0.983 | 0.967 | 0.58 | – | – | – | – | – | 0.799 | 1.03 | 0.946 | 1.02 | 0.843 | – | – | – | –
LC-2-ad | 0.858 | 0.983 | 0.938 | 0.837 | 0.592 | 0.561 | 0.579 | 0.384 | 0.25 | 0.514 | 0.479 | 0.453 | 0.18 | 0.101 | 0.99 | 1.11 | 1.19 | 0.795
LCLC-97TM1 | 0.295 | 0.268 | 0.248 | 0.257 | 0.351 | 0.407 | 0.379 | 0.251 | 0.351 | 0.375 | 0.511 | 0.519 | 0.254 | 0.462 | 0.714 | 0.86 | 0.768 | 0.774
LCLC-103H | 1.01 | 1.01 | 1.02 | 1.06 | 0.327 | 0.345 | 0.419 | 0.317 | 0.314 | – | – | – | – | – | 0.988 | 0.937 | 1.03 | 1.06
LK-2 | 0.995 | 1.24 | 0.719 | 0.549 | 0.385 | 0.807 | 0.428 | 0.181 | 0.105 | 0.726 | 1.06 | 0.889 | 0.527 | 0.455 | 0.181 | 0.213 | 0.176 | 0.147
LOU-NH91 | 0.719 | 0.795 | 0.851 | 0.997 | 0.711 | 0.72 | 0.713 | 0.416 | 0.391 | 0.715 | 0.701 | 0.752 | 0.318 | 0.313 | 0.331 | 0.364 | 0.291 | 0.382
LU99A | 0.492 | 0.602 | 0.584 | 0.574 | 0.789 | 0.99 | 0.95 | 0.556 | 0.759 | 0.761 | 0.72 | 1.11 | – | 0.229 | 0.229 | 0.227 | 0.286 | 0.223
LXF-289 | 0.977 | 1.09 | 1.04 | 1.15 | 0.517 | 0.543 | 0.533 | 0.38 | 0.4 | 0.942 | 1.01 | 1 | 0.931 | 0.251 | 0.668 | 0.75 | 0.766 | 0.657
NCI-H23 | 0.69 | 0.776 | 0.782 | 0.416 | 0.693 | 0.821 | 0.775 | – | 0.355 | 0.712 | 0.884 | 1.07 | 0.733 | 0.518 | 0.197 | 0.231 | 0.203 | 0.215
NCI-H322M | 0.757 | 0.945 | 0.85 | 0.769 | 0.709 | 0.721 | 0.853 | 0.582 | 0.275 | 1.13 | 1.23 | 1.28 | 0.862 | 0.534 | 0.997 | 0.97 | 0.853 | 0.608
NCI-H358 | 0.833 | 0.984 | 0.887 | 0.834 | 0.298 | 0.3 | 0.309 | 0.151 | 0.115 | – | – | – | – | – | 0.27 | 0.305 | 0.599 | 0.359
NCI-H522 | – | – | – | – | 0.595 | 0.595 | 0.619 | 0.553 | 0.583 | – | – | – | – | – | 1.28 | 1.13 | 0.971 | 0.846
NCI-H650 | 1.08 | 1.24 | 1.32 | 1.38 | 0.416 | 0.498 | 0.463 | 0.295 | 0.337 | – | – | – | – | – | 0.82 | 0.825 | 0.734 | 0.953
NCI-H661 | 0.635 | 0.506 | 0.649 | 0.401 | 0.288 | 0.263 | 0.267 | 0.273 | 0.226 | – | – | – | – | – | 0.936 | 0.873 | 0.558 | 0.423
NCI-H1299 | 1.15 | 1.06 | 1.04 | 1.1 | – | – | – | – | – | 1.01 | 1.06 | 1.05 | 1.11 | 0.995 | – | – | – | –
NCI-H1563 | 0.956 | 0.923 | 0.723 | 0.914 | 0.662 | 0.664 | 0.682 | 0.511 | 0.445 | – | – | – | – | – | 0.535 | 0.582 | 0.493 | 0.485
NCI-H1623 | – | – | – | – | 0.577 | 0.624 | 0.611 | 0.585 | 0.554 | – | – | – | – | – | 0.618 | 0.497 | 0.472 | 0.555
NCI-H1650 | – | – | – | – | 0.438 | 0.497 | 0.508 | 0.154 | 0.146 | 1.3 | 1.15 | 1.5 | 1.24 | 0.747 | 0.187 | 0.182 | 0.182 | 0.196
NCI-H1703 | 0.412 | 0.379 | 0.466 | 0.312 | – | – | – | – | – | 1.17 | 1.05 | 1.23 | 0.189 | 0.149 | – | – | – | –
NCI-H2342 | – | – | – | – | 0.66 | 0.623 | 0.649 | 0.525 | 0.535 | – | – | – | – | – | 0.668 | 0.786 | 0.707 | 0.631
SW 900 | – | – | – | – | 0.53 | 0.662 | 0.792 | 0.189 | 0.215 | – | – | – | – | – | 0.19 | 0.159 | 0.181 | 0.17
